Reference: US12383533B2 (Frost Biologic, Inc., priority 2014, dated 2025)

Columns and labels:
[1] = system: A2780 cells; assay: Cell Viability Assay (ATPlite 1step), A2780; format: cell-based; details: Homo sapiens, 72 hours; for percent inhibition of cell viability at 4 µM: A2780, 4 uM compound, read-out: Cell Viability % inhibition A2780 (4 uM Cpd); for percent inhibition of cell viability at 20 µM: A2780, 20 uM compound, read-out: Cell Viability % inhibition A2780 (20 uM Cpd)
Description: (§1) Cell Viability Assay Protocol
(§2) Cells were trypsinized, counted, and re-seeded into a 384-well tissue culture plate at 1000 cells per well in […] media. Cells were incubated at 37° C. in an atmosphere of 5% CO2 for 24 hours. Experimental compounds, initially dissolved in DMSO and diluted further in media were added to the wells and incubated for 72 hours. Cell viability was measured using the ATPlite 1step Luminescence Detection Assay system (Perkin Elmer) as described in the Assay kit instructions.
(§3) Cell Culture Lines and Media: (1) A2780 cells were cultured in RPMI media with 10% FBS and 1% antibiotics. Cells were typically split every 3-5 days at a 1:10 dilution; (2) PC3 cells were cultured in RPMI media with 10% FBS and 1% antibiotics. Cells were typically split every 3-5 days at a 1:4 dilution; (3) MCF-7 cells were grown in K-12F media with 10% FBS and 1% antibiotics. Cells were typically split every 3-5 days at a 1:10 dilution.

[2] = system: PC3 cells; assay: Cell Viability Assay (ATPlite 1step), PC3; format: cell-based; details: Homo sapiens, PC-3, 72 hours; for percent inhibition of cell viability at 4 µM: PC3, 4 uM compound, read-out: Cell Viability % inhibition PC3 (4 uM Cpd); for percent inhibition of cell viability at 20 µM: PC3, 20 uM compound, read-out: Cell Viability % inhibition PC3 (20 uM Cpd)
Description: as §1, §2, §3

| SMILES | percent inhibition of cell viability at 4 µM [1] [%] | percent inhibition of cell viability at 20 µM [1] [%] | percent inhibition of cell viability at 4 µM [2] [%] | percent inhibition of cell viability at 20 µM [2] [%] |
| --- | --- | --- | --- | --- |
| Cc1ccc(C(=O)Nc2ccc(-c3cccc(C4CC4)c3)cn2)cn1 [Compound 25, N-[5-(3-cyclopropylphenyl)pyridin-2-yl]-6-methylpyridine-3-carboxamide] | 70.6 | 81.1 | 50.3 | 63.4 |
| NCCNc1ncc(C(=O)Nc2ccc(-c3cccc(OC4CC4)c3)cn2)cn1 [Compound 58, 2-[(2-aminoethyl)amino]-N-[5-(3-cyclopropyloxyphenyl)pyridin-2-yl]pyrimidine-5-carboxamide] | 86.6 | 91.1 | 77.7 | 93.6 |
| O=C(Nc1ccc(-c2cccc(OC3CC3)c2)cn1)c1cncnc1 [Compound 26, N-{5-[3-(cyclopropyloxy)phenyl]pyridin-2-yl}pyrimidine-5-carboxamide] | 76 | 79.9 | 59.3 | 67.5 |
| O=C(Nc1ccc(-c2cccc(NC3CC3)c2)cn1)c1cncnc1 [Compound 30, N-{5-[3-(cyclopropylamino)phenyl]pyridin-2-yl}pyrimidine-5-carboxamide] | 77.4 | 78.7 | 63.4 | 71.9 |
| O=C(Nc1ccc(-c2ccsc2)cn1)c1cncnc1 [Compound 7, N-[5-(thiophen-3-yl)pyridin-2-yl]pyrimidine-5-carboxamide] | 81.3 | 90.9 | 44.1 | 41.8 |
| O=C(Nc1ccc(-c2cccc(C3COC3)c2)cn1)c1cncnc1 [Compound 41, N-{5-[3-(oxetan-3-yl)phenyl]pyridin-2-yl}pyrimidine-5-carboxamide] | 74.7 | 88.9 | 74.5 | 80.9 |
| Cc1ncc(C(=O)Nc2ccc(-c3cccc(NC4CCNC4)c3)cn2)cn1 (stereo not shown) [Compound 55, 2-methyl-N-{5-[3-(pyrrolidin-3-ylamino)phenyl]pyridin-2-yl}pyrimidine-5-carboxamide] | 80.3 | 87.4 | 81.1 | 82.2 |
| CC(C)(C)c1cccc(-c2ccc(NC(=O)c3cncnc3)nc2)c1 [Compound 46, N-[5-(3-tert-butylphenyl)pyridin-2-yl]pyrimidine-5-carboxamide] | 71.1 | 71.8 | 68.5 | 67.6 |
| COc1ccc(-c2ccc(NC(=O)c3cncnc3)nc2)cc1Cl [Compound 22, N-[5-(3-chloro-4-methoxyphenyl)pyridin-2-yl]pyrimidine-5-carboxamide] | 69 | 67.9 | 20.7 | 11.5 |
| Cc1ncc(C(=O)Nc2ccc(-c3cccc(N4CCN(C)CC4)c3)cn2)cn1 [Compound 35, N-{5-[3-(4-methylpiperazin-1-yl)phenyl]pyridin-2-yl}-2-methylpyrimidine-5-carboxamide] | 54.6 | 75.9 | 39.6 | 58.8 |
| CN1CCN(c2cccc(-c3ccc(NC(=O)c4cncnc4)nc3)c2)CC1 [Compound 34, N-{5-[3-(4-methylpiperazin-1-yl)phenyl]pyridin-2-yl}pyrimidine-5-carboxamide] | 51.6 | 49.4 | 19.8 | 30.3 |
| Cc1ncc(C(=O)Nc2ccc(-c3cccc(C4COC4)c3)cn2)cn1 [Compound 42, 2-methyl-N-{5-[3-(oxetan-3-yl)phenyl]pyridin-2-yl}pyrimidine-5-carboxamide] | 85 | 85.2 | 80.3 | 84.5 |
| O=C(Nc1ccc(-c2cccc(C3CCC3)c2)cn1)c1cncnc1 [Compound 45, N-[5-(3-cyclobutylphenyl)pyridin-2-yl]pyrimidine-5-carboxamide] | 87.6 | 86.4 | 80.8 | 83.3 |
| CN1CCN(c2cccc(-c3ccc(NC(=O)c4cccnc4)nc3)c2)CC1 [Compound 36, N-{5-[3-(4-methylpiperazin-1-yl)phenyl]pyridin-2-yl}pyridine-3-carboxamide] | 51.3 | 55.5 | 24.3 | 42.5 |
| NCCNc1ncc(C(=O)Nc2ccc(-c3cccc(C4CC4)c3)cn2)cn1 [Compound 56, 2-[(2-aminoethyl)amino]-N-[5-(3-cyclopropylphenyl)pyridin-2-yl]pyrimidine-5-carboxamide] | 88 | 97.6 | 81.4 | 97.4 |
| O=C(Nc1ccc(-c2cccc(C3CC3)c2)cn1)c1cnccc1F [Compound 39, N-[5-(3-cyclopropylphenyl)pyridin-2-yl]-4-fluoropyridine-3-carbox-amide] | 55.6 | 58.7 | 19.2 | 28.7 |
| COc1ccc(Cl)cc1-c1ccc(NC(=O)c2cncnc2)nc1 [Compound 21, N-[5-(5-chloro-2-methoxyphenyl)pyridin-2-yl]pyrimidine-5-carboxamide] | 70.4 | 62.4 | 22.8 | 15.3 |
| Cc1ccc(C(=O)Nc2ccc(-c3cccc(N4CCN(C)CC4)c3)cn2)cn1 [Compound 37, N-{5-[3-(4-methylpiperazin-1-yl)phenyl]pyridin-2-yl}-6-methylpyridine-3-carboxamide] | 59.2 | 70.8 | 35.4 | 61 |
| Cc1ccc(C(=O)Nc2ccc(-c3cccc(NC4CC4)c3)cn2)cn1 [Compound 33, N-{5-[3-(cyclopropylamino)phenyl]pyridin-2-yl}-6-methylpyridine-3-carboxamide] | 69.5 | 74.8 | 56.1 | 54.9 |
| Cc1ncc(C(=O)Nc2ccc(-c3cccc(OCCN4CCN(C)CC4)c3)cn2)cn1 [Compound 38, N-{-5-[3-(2-(4-methylpiperazin-1-yl)ethoxy)phenyl]pyridin-2-yl}-2-methylpyrimidine-5-carboxamide] | 51.7 | 68.7 | 39.9 | 61.2 |
| Cc1ncc(C(=O)Nc2ccc(-c3cc(O)cc(C4CC4)c3)cn2)cn1 [Compound 65, N-[5-(3-cyclopropyl-5-hydroxyphenyl)pyridin-2-yl]-2-methylpyrimidine-5-carboxamide] | 85.9 | 89.8 | 80.5 | 82.2 |
| O=C(Nc1ccc(-c2cccc(C3CC3)c2)cn1)c1cccnc1 [Compound 24, N-[5-(3-cyclopropylphenyl)pyridin-2-yl]pyridine-3-carboxamide] | 73.4 | 72.2 | 53.1 | 67.5 |
| O=C(Nc1ccc(-c2ccccc2Cl)cn1)c1cncnc1 [Compound 4, N-[5-(2-chlorophenyl)pyridin-2-yl]pyrimidine-5-carboxamide] | 79.7 | 87.5 | 36 | 44.2 |
| COc1ncc(C(=O)Nc2ccc(-c3cccc(OC4CC4)c3)cn2)cn1 [Compound 57, N-{5-[3-(cyclopropyloxy)phenyl]pyridin-2-yl}-2-methoxypyrimidine-5-carboxamide] | 88.3 | 89.8 | 85.1 | 89 |
| O=C(Nc1ccc(-c2cccc(C3CC3)c2)cn1)c1cnc(O)nc1 [Compound 60, N-[5-(3-cyclopropylphenyl)pyridin-2-yl]-2-hydroxypyrimidine-5-carboxamide] | 77.1 | 83.7 | 48.8 | 80.6 |
